Reference: US9980948B2, “Azaindole derivative having AMPK-activating activity” (Shionogi & Co., Ltd., priority 2014, dated 2018)
Like-named read-outs stand apart in the source and are kept apart here.

Target: T1, Human AMPK α2β2γ1 (Homo sapiens, UniProt O43741+P54646)
T1 construct: The full length cDNAs of human AMPK β2 (NM_005399.3) and human AMPK α2 (NM_006252.3); The full length cDNAs of human AMPK β2 (NM_005399.3); the full length cDNA of human AMPK γ1 (NM_002733.3) had been inserted into pET28b(+); 6xHis (N); made in house; host or cells: Escherichia coli BL21 CodonPlus (DE3)-RTL (AMPK); BL21 Star (DE3) (CaMKKβ)
Assay: Test Example 2: evaluation of an activator for AMP-activated protein kinase (AMPK), human AMPK α2β2γ1 phosphorylated with CaMKK2, FL-Peptide 7 mobility shift
Type: biochemical
Conditions: for EC150 (compound concentration showing 150% relative to the control (100%)): human AMPK α2β2γ1, 0.2 mM ATP final, 25° C., 2 hours; for Emax: read-out: Emax (maximum rate of increase in activity within the measurement range)
Description: The full length cDNAs of human AMPK β2 (NM_005399.3) and human AMPK α2 (NM_006252.3) were inserted into the MCS1 and MCS2 of the pETDuet-1 vector to prepare a human AMPK β2 and human AMPK α2 (6× His tag at the 5′ terminus) expressing plasmid. The plasmid was cotransfected with an expression plasmid, in which the full length cDNA of human AMPK γ1 (NM_002733.3) had been inserted into pET28b(+), into BL21 CodonPlus (DE3)-RTL to obtain an expression strain. The expression strain was cultured in TB medium, followed by induction with 0.5 mM IPTG, and cultured at 25° C. for 3 hours and then harvested.
An expression vector, in which the full length cDNA of human CAMKK β (NM_172226.1) had been inserted into pGEX-6P-3, was transfected into BL21 Star (DE3). The expression strain was cultured in TB medium, followed by induction with 0.5 mM IPTG, and cultured at 25° C. for 3 hours and then harvested.
Thus, phosphorylation treatment was carried out as pretreatment.
Human AMPK α2β2γ1 in an amount to give a conversion rate of approximately 10% by reaction for 2 hours, and CaMKK2 in an amount capable of sufficiently imparting activity to AMPK for one hour were mixed in a buffer solution consisting of a 50 mM HEPES-NaOH buffer solution (pH 7.0), 100 mM NaCl, 5 mM magnesium chloride, 0.1% bovine serum albumin, 0.2 mM sodium orthovanadate(V), 1 mM ethylene glycol-bis(2-aminoethyl ether)-N,N,N′,N′-tetraacetic acid (EGTA), 5 mM disodium β-glycerophosphate, 1 mM dithiothreitol and 0.2 mM ATP, and the obtained liquid was left to stand at 25° C. for 1 to 1.5 hours to sufficiently phosphorylate AMPK.
The obtained liquid was left to stand for 10 minutes.
The obtained liquid was allowed to react at 25° C. for 2 hours, and 10 μl of 20 mM EDTA was then added thereto to stop the reaction.
To detect phosphorylated fluorescent substrates, the reaction liquid was applied to a measuring device, LabChip EZ Reader II manufactured by Caliper Life Science, Inc., for detecting fluorescence by using differences in mobility due to differences in charge. The setting conditions for the device were pressure, −1.5 PSI; upstream voltage, −2250 V; downstream voltage, −400 V; post sample buffer sip time, 40 seconds; final delay, 120 seconds; and peak order, Product First.
A conversion rate was calculated from the peak heights of the resulting substrate and product. The conversion rate when not containing a compound was used as a control, and a concentration dependent curve was made by plotting the rate of increase in activity to the control at each concentration of a compound.

[1] = human AMPK α2β2γ1, relative to control (100%)

T1 sequence (P54646 whole entry): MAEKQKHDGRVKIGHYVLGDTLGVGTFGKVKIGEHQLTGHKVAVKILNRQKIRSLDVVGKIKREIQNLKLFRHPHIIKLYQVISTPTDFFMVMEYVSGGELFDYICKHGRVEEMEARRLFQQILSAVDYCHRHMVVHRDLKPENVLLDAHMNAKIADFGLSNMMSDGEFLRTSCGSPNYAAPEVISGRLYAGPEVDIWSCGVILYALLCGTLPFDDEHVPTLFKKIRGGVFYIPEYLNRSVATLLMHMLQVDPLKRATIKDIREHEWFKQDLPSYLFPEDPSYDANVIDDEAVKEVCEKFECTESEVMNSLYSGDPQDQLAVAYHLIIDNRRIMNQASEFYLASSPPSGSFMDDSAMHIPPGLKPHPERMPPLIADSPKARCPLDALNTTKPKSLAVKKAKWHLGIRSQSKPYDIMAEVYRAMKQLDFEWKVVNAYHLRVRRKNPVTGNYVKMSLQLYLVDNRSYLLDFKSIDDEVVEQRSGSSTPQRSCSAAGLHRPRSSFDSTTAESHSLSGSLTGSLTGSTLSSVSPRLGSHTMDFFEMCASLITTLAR
T1 sequence (O43741 whole entry): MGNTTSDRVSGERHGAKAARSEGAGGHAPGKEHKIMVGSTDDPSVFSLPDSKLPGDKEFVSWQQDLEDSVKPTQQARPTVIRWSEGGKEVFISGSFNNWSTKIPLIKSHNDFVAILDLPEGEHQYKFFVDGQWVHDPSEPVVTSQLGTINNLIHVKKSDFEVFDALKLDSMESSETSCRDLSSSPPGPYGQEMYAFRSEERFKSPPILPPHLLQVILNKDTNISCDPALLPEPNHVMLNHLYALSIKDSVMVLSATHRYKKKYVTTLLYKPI
T1 sequence (P54619 whole entry partner): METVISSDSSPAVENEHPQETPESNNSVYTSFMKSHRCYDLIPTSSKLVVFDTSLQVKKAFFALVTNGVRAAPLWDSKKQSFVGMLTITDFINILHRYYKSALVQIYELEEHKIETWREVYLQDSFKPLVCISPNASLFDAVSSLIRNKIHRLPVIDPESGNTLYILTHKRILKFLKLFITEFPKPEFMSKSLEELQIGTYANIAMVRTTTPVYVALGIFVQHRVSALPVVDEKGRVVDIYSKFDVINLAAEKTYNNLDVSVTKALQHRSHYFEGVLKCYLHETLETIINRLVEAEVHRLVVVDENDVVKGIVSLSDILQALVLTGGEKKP

SMILES | EC150 (compound concentration showing 150% relative to the control (100%)) | Emax [1] | Emax
O[C@@H]1CO[C@H]2[C@@H]1OC[C@H]2Oc1cc2nc(-c3ccc(OCCCN4CCOCC4)cc3)c(F)cc2[nH]1 [Compound I-3-6] | 74 nM | 475% | –
CC(=O)Nc1nc(-c2ccc(-c3nc4cc(O[C@@H]5CO[C@H]6[C@@H]5OC[C@H]6O)[nH]c4cc3F)cc2)cs1 [Compound I-3-10] | 7.9 nM | 391% | –
CS(C)(=O)=Nc1ccc(-c2ccc(-c3nc4cc(O[C@@H]5CO[C@H]6[C@@H]5OC[C@H]6O)[nH]c4cc3F)cc2)nc1 [Compound I-3-12] | 4.2 nM | 396% | –
O[C@@H]1CO[C@H]2[C@@H]1OC[C@H]2Oc1cc2nc(-c3ccc4scnc4c3)c(F)cc2[nH]1 [Compound I-3-14] | 150 nM | 430% | –
N#Cc1cc2[nH]c(O[C@@H]3CO[C@H]4[C@@H]3OC[C@H]4O)cc2nc1NC1CCc2cc(F)cc(F)c21 (stereo partly shown) [Compound I-3-17] | 40 nM | 492% | –
O[C@@H]1CO[C@H]2[C@@H]1OC[C@H]2Oc1cc2nc(NC3CCc4cc(F)cc(F)c43)c(C(F)(F)F)cc2[nH]1 (stereo partly shown) [Compound I-3-19] | 120 nM | 543% | –
O[C@@H]1CO[C@H]2[C@@H]1OC[C@H]2Oc1cc2nc(-c3ccc(-c4ccsc4)cc3)c(F)cc2[nH]1 [Compound I-3-23] | 5 nM | 510% | –
O[C@@H]1CO[C@H]2[C@@H]1OC[C@H]2Oc1cc2nc(-c3ccsc3)c(F)cc2[nH]1 [Compound I-3-24] | 340 nM | 315% | –
Cn1cc(-c2ccc(-c3nc4cc(O[C@@H]5CO[C@H]6[C@@H]5OC[C@H]6O)[nH]c4cc3F)cc2)cn1 [Compound I-3-25] | 6.6 nM | 493% | –
COc1nc(N2CCCC2)ccc1-c1nc2cc(O[C@@H]3CO[C@H]4[C@@H]3OC[C@H]4O)[nH]c2cc1F [Compound I-3-27] | 12 nM | 633% | –
COc1cc(F)c(-c2nc3cc(O[C@@H]4CO[C@H]5[C@@H]4OC[C@H]5O)[nH]c3cc2F)c(F)c1 [Compound I-3-28] | 87 nM | 430% | –
O=C(CO)NCCCOc1ccc(-c2nc3cc(O[C@@H]4CO[C@H]5[C@@H]4OC[C@H]5O)[nH]c3cc2F)cc1 [Compound I-3-31] | 55 nM | 505% | –
O[C@@H]1CO[C@H]2[C@@H]1OC[C@H]2Oc1cc2nc(-c3ccc(N4CCOCC4)cc3F)c(C(F)(F)F)cc2[nH]1 [Compound I-3-39] | 200 nM | 491% | –
CS(C)(=O)=Nc1ccc(-c2ccc(-c3nc4cc(O[C@@H]5CO[C@H]6[C@@H]5OC[C@H]6O)[nH]c4cc3F)cc2)cc1 [Compound I-3-40] | 0.91 nM | – | 491%
COc1cc(C2=CCOCC2)ccc1-c1nc2cc(O[C@@H]3CO[C@H]4[C@@H]3OC[C@H]4O)[nH]c2cc1F [Compound I-3-41] | 31 nM | 500% | –
CS(=N)(=O)c1ccc(-c2ccc(-c3nc4cc(O[C@@H]5CO[C@H]6[C@@H]5OC[C@H]6O)[nH]c4cc3F)cc2)cc1 (stereo partly shown) [Compound I-3-43] | 0.84 nM | 538% | –
CN=S(C)(=O)c1ccc(-c2ccc(-c3nc4cc(O[C@@H]5CO[C@H]6[C@@H]5OC[C@H]6O)[nH]c4cc3F)cc2)cc1 (stereo partly shown) [Compound I-4-1] | 1.4 nM | 496% | –
